Source: PubChem BioAssay AID1919003 (Molecular Pharmacology Branch, DTP, NCI, 2023)

Test system: 786-0 complex spheroids with HUVEC/MSC, growth % test/control
Assay: Anticancer human tumor 786-0 cell line growth inhibition [AhR];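 further: compound exposure lasted seven days before the read-out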
Conditions: for IC50: curve of first compound; for viability, T/C: stronger effect = lower value; active means viability on the fitted dose curve at most 10% of control; inactive means the rest
Method in brief: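 Complex tumor spheroids co-cultured with HUVEC and human MSC stroma; AhR antagonists tested in combination with standard-of-care and investigational agents. Top concentration at or near clinical Cmax (else 10 microM), half-log dilutions; growth expressed as percent test/control.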

[1] = second compound 0.1 µM, first compound 0.0316 µM
[2] = second compound 0.1 µM, first compound 0.1 µM
[3] = second compound 0.316 µM, first compound 0.0316 µM
[4] = second compound 0.316 µM, first compound 0.1 µM
[5] = second compound 1 µM, first compound 0.0316 µM
[6] = second compound 1 µM, first compound 0.1 µM
[7] = second compound 3.16 µM, first compound 0.0316 µM
[8] = second compound 3.16 µM, first compound 0.1 µM
[9] = second compound 10 µM, first compound 0.0316 µM
[10] = second compound 10 µM, first compound 0.1 µM

O=C(C=Cn1cnc(-c2cc(C(F)(F)F)cc(C(F)(F)F)c2)n1)NNc1cnccn1 + CC(CO)NC(=O)c1cc(-c2ccc(Cl)cc2)nn(-c2cnn(C)c2)c1=O
251 nM: IC50 (second compound 0.316 µM)
inactive: viability, T/C (second compound 0.1 µM, first compound 0.00949 µM) 108% | viability, T/C (second compound 0.1 µM, first compound 0.03 µM) 110% | viability, T/C (second compound 0.1 µM, first compound 0.0949 µM) 107% | viability, T/C (second compound 0.1 µM, first compound 0.3 µM) 45.5% | viability, T/C (second compound 0.1 µM, first compound 0.949 µM) 25.7% | viability, T/C (second compound 0.1 µM, first compound 3 µM) 10.5% | viability, T/C (second compound 0.316 µM, first compound 0.00949 µM) 111% | viability, T/C (second compound 0.316 µM, first compound 0.03 µM) 113% | viability, T/C (second compound 0.316 µM, first compound 0.0949 µM) 112% | viability, T/C (second compound 0.316 µM, first compound 0.3 µM) 38.7% | viability, T/C (second compound 0.316 µM, first compound 0.949 µM) 28.2% | viability, T/C (second compound 0.316 µM, first compound 3 µM) 11% | viability, T/C (second compound 1 µM, first compound 0.00949 µM) 105% | viability, T/C (second compound 1 µM, first compound 0.03 µM) 115% | viability, T/C (second compound 1 µM, first compound 0.0949 µM) 113% | viability, T/C (second compound 1 µM, first compound 0.3 µM) 36% | viability, T/C (second compound 1 µM, first compound 0.949 µM) 24.5% | viability, T/C (second compound 1 µM, first compound 3 µM) 9.93% | viability, T/C (second compound 3.16 µM, first compound 0.00949 µM) 110% | viability, T/C (second compound 3.16 µM, first compound 0.03 µM) 116% | viability, T/C (second compound 3.16 µM, first compound 0.0949 µM) 106% | viability, T/C (second compound 3.16 µM, first compound 0.3 µM) 37.9% | viability, T/C (second compound 3.16 µM, first compound 0.949 µM) 22.9% | viability, T/C (second compound 3.16 µM, first compound 3 µM) 9.29% | viability, T/C (second compound 10 µM, first compound 0.00949 µM) 119% | viability, T/C (second compound 10 µM, first compound 0.03 µM) 122% | viability, T/C (second compound 10 µM, first compound 0.0949 µM) 107% | viability, T/C (second compound 10 µM, first compound 0.3 µM) 44.8% | viability, T/C (second compound 10 µM, first compound 0.949 µM) 23.6% | viability, T/C (second compound 10 µM, first compound 3 µM) 10.6%
246 nM: IC50 (second compound 3.16 µM)
242 nM: IC50 (second compound 1 µM)
278 nM: IC50 (second compound 0.1 µM) | IC50 (second compound 10 µM)

CC[C@@]1(O)C(=O)OCc2c1cc1n(c2=O)Cc2cc3c(CN(C)C)c(O)ccc3nc2-1 + Cc1cncc(-c2nc(NCCc3c[nH]c4ccccc34)c3ncn(C(C)C)c3n2)c1
active: viability, T/C [8] 9.39% | viability, T/C (second compound 10 µM, first compound 0.00316 µM) 11.8% | viability, T/C (second compound 10 µM, first compound 0.01 µM) 4.85% | viability, T/C [9] 1.61% | viability, T/C [10] 0.53%
28.1 nM: IC50 (second compound 3.16 µM)
61.6 nM: IC50 (second compound 0.1 µM)
64.2 nM: IC50 (second compound 0.316 µM)
56.1 nM: IC50 (second compound 1 µM)
< 0.316 nM: IC50 (second compound 10 µM)
inactive: viability, T/C (second compound 0.1 µM, first compound 0.000316 µM) 116% | viability, T/C (second compound 0.1 µM, first compound 0.001 µM) 118% | viability, T/C (second compound 0.1 µM, first compound 0.00316 µM) 117% | viability, T/C (second compound 0.1 µM, first compound 0.01 µM) 115% | viability, T/C [1] 91.1% | viability, T/C [2] 20.1% | viability, T/C (second compound 0.316 µM, first compound 0.000316 µM) 113% | viability, T/C (second compound 0.316 µM, first compound 0.001 µM) 107% | viability, T/C (second compound 0.316 µM, first compound 0.00316 µM) 119% | viability, T/C (second compound 0.316 µM, first compound 0.01 µM) 112% | viability, T/C [3] 99% | viability, T/C [4] 19.2% | viability, T/C (second compound 1 µM, first compound 0.000316 µM) 109% | viability, T/C (second compound 1 µM, first compound 0.001 µM) 109% | viability, T/C (second compound 1 µM, first compound 0.00316 µM) 103% | viability, T/C (second compound 1 µM, first compound 0.01 µM) 108% | viability, T/C [5] 83.5% | viability, T/C [6] 16% | viability, T/C (second compound 3.16 µM, first compound 0.000316 µM) 73.4% | viability, T/C (second compound 3.16 µM, first compound 0.001 µM) 78.5% | viability, T/C (second compound 3.16 µM, first compound 0.00316 µM) 88.8% | viability, T/C (second compound 3.16 µM, first compound 0.01 µM) 83% | viability, T/C [7] 46.5% | viability, T/C (second compound 10 µM, first compound 0.000316 µM) 15.5% | viability, T/C (second compound 10 µM, first compound 0.001 µM) 11%

Nc1ccccc1NC(=O)c1ccc(CNC(=O)OCc2cccnc2)cc1 + Cc1ccccc1N=Nc1ccc(NC(=O)c2ccnn2C)c(C)c1
6610 nM: IC50 (second compound 3.16 µM)
7060 nM: IC50 (second compound 0.1 µM)
5760 nM: IC50 (second compound 10 µM)
7470 nM: IC50 (second compound 0.316 µM)
7200 nM: IC50 (second compound 1 µM)
inactive: viability, T/C [1] 104% | viability, T/C [2] 99.1% | viability, T/C (second compound 0.1 µM, first compound 0.316 µM) 120% | viability, T/C (second compound 0.1 µM, first compound 1 µM) 103% | viability, T/C (second compound 0.1 µM, first compound 3.16 µM) 94.2% | viability, T/C (second compound 0.1 µM, first compound 10 µM) 30.8% | viability, T/C [3] 114% | viability, T/C [4] 103% | viability, T/C (second compound 0.316 µM, first compound 0.316 µM) 106% | viability, T/C (second compound 0.316 µM, first compound 1 µM) 115% | viability, T/C (second compound 0.316 µM, first compound 3.16 µM) 105% | viability, T/C (second compound 0.316 µM, first compound 10 µM) 31.1% | viability, T/C [5] 105% | viability, T/C [6] 111% | viability, T/C (second compound 1 µM, first compound 0.316 µM) 105% | viability, T/C (second compound 1 µM, first compound 1 µM) 104% | viability, T/C (second compound 1 µM, first compound 3.16 µM) 94.3% | viability, T/C (second compound 1 µM, first compound 10 µM) 32% | viability, T/C [7] 88.1% | viability, T/C [8] 90.6% | viability, T/C (second compound 3.16 µM, first compound 0.316 µM) 92.2% | viability, T/C (second compound 3.16 µM, first compound 1 µM) 80.8% | viability, T/C (second compound 3.16 µM, first compound 3.16 µM) 91.4% | viability, T/C (second compound 3.16 µM, first compound 10 µM) 28.2% | viability, T/C [9] 88.5% | viability, T/C [10] 91.7% | viability, T/C (second compound 10 µM, first compound 0.316 µM) 99.2% | viability, T/C (second compound 10 µM, first compound 1 µM) 91.2% | viability, T/C (second compound 10 µM, first compound 3.16 µM) 75.8% | viability, T/C (second compound 10 µM, first compound 10 µM) 26.3%
